Laboratory results published in paper PMC8213057, “Targeting ALK2: An Open Science Approach to Developing Therapeutics for the Treatment of Diffuse Intrinsic Pontine Glioma” (Journal of Medicinal Chemistry, 2020).

Experiments:
DAPK2 = DAPK2 (Homo sapiens, UniProt Q9UIK4); settings: 1 μM; Run 1, Run 2
TTBK2 = TTBK2 (Homo sapiens, UniProt Q6IQ55); settings: 1 μM; Run 1, Run 2
DAPK1 = DAPK1 (Homo sapiens, UniProt P53355); test: biochemical; settings: read-out: % enzyme activity, 1 μM; Run 1, Run 2
HIPK3 = HIPK3 (Homo sapiens, UniProt Q9H422); test: biochemical; settings: read-out: % enzyme activity, 1 μM; Run 1, Run 2
MYO3b = biological target: T1, MYO3b (Homo sapiens, UniProt Q8WXR4); test: biochemical; settings: read-out: % enzyme activity, 1 μM; Run 1, Run 2
T1 sequence (Q8WXR4 1-1341): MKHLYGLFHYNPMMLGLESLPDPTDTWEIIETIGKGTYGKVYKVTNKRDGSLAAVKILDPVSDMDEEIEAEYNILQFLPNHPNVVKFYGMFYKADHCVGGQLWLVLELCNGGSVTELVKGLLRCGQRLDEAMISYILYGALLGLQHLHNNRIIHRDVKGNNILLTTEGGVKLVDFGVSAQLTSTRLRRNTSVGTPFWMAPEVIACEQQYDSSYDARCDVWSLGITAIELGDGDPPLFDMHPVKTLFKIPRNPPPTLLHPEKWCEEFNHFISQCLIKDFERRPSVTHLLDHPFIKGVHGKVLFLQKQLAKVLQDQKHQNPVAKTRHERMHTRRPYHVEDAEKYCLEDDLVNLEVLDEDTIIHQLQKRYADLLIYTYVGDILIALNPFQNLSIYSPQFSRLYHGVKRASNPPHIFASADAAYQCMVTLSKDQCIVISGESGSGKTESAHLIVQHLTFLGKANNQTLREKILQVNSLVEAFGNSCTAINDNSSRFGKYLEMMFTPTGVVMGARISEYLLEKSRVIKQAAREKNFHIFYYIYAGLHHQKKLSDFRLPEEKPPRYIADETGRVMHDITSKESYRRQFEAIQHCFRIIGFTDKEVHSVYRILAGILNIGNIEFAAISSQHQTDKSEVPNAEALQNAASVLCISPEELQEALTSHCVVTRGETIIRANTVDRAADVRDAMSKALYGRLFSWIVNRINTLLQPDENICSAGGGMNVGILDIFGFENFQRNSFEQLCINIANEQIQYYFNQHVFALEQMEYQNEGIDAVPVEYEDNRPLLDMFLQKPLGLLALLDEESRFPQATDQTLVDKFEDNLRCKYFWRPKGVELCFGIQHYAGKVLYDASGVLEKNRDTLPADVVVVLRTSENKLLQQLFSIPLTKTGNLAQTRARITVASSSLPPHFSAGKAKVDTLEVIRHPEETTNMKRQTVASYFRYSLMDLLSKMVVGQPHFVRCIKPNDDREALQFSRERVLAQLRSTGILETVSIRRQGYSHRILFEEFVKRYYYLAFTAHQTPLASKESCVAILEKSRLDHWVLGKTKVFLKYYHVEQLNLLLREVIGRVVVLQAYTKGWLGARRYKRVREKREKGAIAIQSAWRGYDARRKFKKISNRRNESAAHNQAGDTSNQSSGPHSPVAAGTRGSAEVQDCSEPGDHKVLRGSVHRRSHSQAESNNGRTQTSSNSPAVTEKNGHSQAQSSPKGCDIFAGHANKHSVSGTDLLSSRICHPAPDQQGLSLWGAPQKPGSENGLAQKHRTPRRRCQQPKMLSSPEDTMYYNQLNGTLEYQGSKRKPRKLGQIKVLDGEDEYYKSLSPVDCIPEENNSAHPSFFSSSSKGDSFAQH

SGK3/SGKL = biological target: T2, SGK3/SGKL (Homo sapiens, UniProt Q96BR1); test: biochemical; settings: read-out: % enzyme activity, 1 μM; Run 1, Run 2
T2 sequence (Q96BR1 1-496): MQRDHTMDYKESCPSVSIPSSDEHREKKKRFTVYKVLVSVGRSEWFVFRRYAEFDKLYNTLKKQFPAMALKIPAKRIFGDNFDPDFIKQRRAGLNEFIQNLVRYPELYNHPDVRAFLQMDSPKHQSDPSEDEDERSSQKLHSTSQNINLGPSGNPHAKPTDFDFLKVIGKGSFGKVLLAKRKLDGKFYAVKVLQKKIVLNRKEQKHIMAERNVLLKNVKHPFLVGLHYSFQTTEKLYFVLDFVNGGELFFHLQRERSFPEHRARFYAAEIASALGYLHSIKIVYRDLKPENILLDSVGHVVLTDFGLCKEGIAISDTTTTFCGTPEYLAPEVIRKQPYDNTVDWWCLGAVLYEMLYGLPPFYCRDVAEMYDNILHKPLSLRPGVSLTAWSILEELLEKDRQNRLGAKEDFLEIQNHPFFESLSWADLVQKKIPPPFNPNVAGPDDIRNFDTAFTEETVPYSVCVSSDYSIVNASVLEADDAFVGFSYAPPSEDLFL

TTBK2, sequence (Q6IQ55 whole entry): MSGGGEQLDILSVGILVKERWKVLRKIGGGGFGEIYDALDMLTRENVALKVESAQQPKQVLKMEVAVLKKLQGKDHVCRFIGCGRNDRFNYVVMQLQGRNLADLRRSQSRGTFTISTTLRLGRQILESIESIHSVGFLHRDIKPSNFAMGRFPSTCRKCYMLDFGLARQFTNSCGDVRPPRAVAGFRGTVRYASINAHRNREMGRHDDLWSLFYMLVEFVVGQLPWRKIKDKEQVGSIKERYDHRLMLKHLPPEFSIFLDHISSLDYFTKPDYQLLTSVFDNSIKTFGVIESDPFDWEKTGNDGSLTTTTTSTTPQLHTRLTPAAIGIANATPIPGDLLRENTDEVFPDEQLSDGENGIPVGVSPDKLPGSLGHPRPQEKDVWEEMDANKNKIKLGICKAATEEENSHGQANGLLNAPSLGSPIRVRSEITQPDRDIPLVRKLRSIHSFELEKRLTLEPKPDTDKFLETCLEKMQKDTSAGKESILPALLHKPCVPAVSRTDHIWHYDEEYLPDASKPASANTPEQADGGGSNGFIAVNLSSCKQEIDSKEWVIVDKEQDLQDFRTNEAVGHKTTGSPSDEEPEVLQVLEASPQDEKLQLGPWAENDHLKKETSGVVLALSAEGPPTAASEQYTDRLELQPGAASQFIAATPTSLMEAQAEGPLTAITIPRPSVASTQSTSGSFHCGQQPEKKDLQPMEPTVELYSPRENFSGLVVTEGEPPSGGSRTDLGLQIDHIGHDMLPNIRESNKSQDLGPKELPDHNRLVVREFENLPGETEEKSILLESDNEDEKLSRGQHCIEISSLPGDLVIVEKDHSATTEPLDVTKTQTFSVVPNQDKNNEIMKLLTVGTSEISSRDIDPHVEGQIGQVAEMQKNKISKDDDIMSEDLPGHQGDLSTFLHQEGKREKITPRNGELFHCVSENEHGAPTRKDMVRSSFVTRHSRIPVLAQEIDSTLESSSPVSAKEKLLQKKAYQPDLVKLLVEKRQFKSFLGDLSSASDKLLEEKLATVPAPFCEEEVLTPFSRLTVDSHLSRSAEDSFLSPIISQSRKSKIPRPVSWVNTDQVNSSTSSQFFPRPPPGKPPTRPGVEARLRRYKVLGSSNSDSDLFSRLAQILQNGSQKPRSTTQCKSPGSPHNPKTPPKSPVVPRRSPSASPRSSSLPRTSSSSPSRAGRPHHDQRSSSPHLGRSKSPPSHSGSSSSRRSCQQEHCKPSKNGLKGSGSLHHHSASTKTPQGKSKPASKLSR
DAPK1, sequence (P53355 whole entry): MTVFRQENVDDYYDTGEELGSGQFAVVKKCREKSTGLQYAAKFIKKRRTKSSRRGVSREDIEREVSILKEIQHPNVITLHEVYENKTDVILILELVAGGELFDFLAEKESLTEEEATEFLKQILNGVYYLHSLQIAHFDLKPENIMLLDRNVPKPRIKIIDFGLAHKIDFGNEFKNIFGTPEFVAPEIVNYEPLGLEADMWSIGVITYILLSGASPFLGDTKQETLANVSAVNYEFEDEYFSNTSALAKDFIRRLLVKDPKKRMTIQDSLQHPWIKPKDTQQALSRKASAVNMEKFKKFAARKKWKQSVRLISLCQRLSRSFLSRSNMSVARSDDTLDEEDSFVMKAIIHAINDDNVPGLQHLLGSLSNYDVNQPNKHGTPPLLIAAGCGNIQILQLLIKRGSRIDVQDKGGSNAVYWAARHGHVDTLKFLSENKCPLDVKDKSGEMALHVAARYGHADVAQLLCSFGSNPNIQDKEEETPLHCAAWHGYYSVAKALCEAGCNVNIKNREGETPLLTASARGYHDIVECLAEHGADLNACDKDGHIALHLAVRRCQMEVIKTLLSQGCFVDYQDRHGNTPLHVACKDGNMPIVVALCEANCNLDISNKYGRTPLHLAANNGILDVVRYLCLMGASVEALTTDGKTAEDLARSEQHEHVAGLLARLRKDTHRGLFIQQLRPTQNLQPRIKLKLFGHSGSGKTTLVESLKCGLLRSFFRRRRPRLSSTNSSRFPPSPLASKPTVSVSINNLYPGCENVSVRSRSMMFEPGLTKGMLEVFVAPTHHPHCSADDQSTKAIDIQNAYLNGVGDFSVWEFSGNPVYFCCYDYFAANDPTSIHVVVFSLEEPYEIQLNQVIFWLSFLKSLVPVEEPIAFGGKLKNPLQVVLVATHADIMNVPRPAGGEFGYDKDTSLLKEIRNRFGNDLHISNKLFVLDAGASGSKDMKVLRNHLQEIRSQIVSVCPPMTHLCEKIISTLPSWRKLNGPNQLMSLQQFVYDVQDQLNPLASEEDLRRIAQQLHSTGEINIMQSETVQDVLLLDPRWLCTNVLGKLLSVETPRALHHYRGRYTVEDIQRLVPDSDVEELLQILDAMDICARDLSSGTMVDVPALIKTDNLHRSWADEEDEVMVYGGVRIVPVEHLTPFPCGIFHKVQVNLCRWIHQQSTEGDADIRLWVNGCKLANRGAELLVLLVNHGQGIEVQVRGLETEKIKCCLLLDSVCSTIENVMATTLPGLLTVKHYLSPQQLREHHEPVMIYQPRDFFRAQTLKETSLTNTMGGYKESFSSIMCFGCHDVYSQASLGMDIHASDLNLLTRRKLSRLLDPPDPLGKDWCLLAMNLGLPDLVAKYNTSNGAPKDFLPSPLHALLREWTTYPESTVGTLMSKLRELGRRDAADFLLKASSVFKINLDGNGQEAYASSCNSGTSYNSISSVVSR
HIPK3, sequence (Q9H422 whole entry): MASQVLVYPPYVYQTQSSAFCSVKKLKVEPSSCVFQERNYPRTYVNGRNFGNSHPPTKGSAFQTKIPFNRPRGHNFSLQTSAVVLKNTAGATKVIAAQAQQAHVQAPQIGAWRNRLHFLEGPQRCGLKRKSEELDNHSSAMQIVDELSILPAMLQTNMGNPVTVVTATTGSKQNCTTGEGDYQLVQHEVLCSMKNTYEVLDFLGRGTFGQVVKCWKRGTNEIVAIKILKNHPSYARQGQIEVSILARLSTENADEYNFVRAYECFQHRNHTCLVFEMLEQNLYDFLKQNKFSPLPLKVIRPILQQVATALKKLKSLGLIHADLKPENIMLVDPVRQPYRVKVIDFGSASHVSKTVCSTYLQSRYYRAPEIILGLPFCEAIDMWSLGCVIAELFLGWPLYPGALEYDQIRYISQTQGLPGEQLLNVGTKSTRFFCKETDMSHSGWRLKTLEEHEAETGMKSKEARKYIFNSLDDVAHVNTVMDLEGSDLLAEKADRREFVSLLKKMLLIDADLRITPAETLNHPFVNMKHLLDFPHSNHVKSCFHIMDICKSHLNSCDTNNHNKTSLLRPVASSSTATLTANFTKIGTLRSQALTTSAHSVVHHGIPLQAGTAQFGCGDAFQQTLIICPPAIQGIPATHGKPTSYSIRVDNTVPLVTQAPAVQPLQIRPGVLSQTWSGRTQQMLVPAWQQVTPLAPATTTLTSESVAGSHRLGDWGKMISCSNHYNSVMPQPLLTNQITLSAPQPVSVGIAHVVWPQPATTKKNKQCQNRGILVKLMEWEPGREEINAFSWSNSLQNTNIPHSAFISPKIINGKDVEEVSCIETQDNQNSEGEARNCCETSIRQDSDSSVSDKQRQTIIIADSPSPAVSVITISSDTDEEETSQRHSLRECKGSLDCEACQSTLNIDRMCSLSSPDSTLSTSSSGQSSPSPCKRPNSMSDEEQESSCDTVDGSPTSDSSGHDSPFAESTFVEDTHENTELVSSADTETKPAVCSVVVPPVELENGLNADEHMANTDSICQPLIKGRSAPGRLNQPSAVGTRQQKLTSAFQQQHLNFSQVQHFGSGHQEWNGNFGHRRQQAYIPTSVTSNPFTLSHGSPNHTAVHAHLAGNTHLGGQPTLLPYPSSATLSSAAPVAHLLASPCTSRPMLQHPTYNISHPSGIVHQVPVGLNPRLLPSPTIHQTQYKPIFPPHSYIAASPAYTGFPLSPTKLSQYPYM
DAPK2, sequence (Q9UIK4 whole entry): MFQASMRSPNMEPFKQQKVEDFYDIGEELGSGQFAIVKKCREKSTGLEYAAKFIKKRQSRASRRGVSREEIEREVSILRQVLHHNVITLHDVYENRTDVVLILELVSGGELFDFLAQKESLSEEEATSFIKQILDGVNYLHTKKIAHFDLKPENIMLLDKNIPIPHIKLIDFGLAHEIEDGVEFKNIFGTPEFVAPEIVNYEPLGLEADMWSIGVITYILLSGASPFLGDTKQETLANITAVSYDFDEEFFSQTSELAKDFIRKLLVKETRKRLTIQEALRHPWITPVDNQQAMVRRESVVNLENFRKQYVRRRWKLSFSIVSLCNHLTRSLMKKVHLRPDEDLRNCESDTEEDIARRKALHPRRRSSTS

Structure (SMILES) | % enzyme activity (DAPK2) | % enzyme activity (TTBK2) | remaining activity at 1 µM (DAPK1) | remaining activity at 1 µM (HIPK3) | remaining activity at 1 µM (MYO3b) | remaining activity at 1 µM (SGK3/SGKL)
COc1cc(-c2cncc(-c3ccc(N4CCN(C)CC4)cc3)c2C)cc(F)c1C(N)=O [Compound 26a, 2-Fluoro-6-methoxy-4-(4-methyl-5-(4-(4-methylpiperazin-1-yl)phenyl)pyridin-3-yl)benzamide] | 101.48% | 94.62% | 95.7% | 97.8% | 81.6% | 103%
COc1cc(-c2cncc(-c3ccc(N4C[C@@H](C)N(C)[C@@H](C)C4)cc3)c2C)cc(F)c1C(N)=O [Compound 26c, 2-Fluoro-6-methoxy-4-(4-methyl-5-(4-((3R,5S)-3,4,5-trimethylpiperazin-1-yl)phenyl)pyridin-3-yl)benzamide] | 95.98% | 96.48% | 98.8% | 90.4% | 86.5% | 94.8%
